Patent US10981932B2, “Macrocyclic indole derivatives” (Bayer Aktiengesellschaft, priority 2016, dated 2021)
“And” between values parts separate entries of the source, which are not always exact repeats. Equal entries are not always repeated. Structures can show the parent of a compound that is named as a salt. Where two headings read alike, the source gives them in different places.

Experiments:
SUDHL5 [1] = assay: Induction of caspase-3/7 activity (Caspase-Glo 3/7), SUDHL5; format: cell-based; settings: caspase-3/7 induction, SUDHL5 cells, 3 h treatment, median
Procedure, shortened: (§1)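 Caspase-Glo 3/7 luminescence, 3 h compound exposure, 37 °C, humidified. Minus medium-only blank. EC50 fit: C0=1, plateau = reference max induction.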

SUDHL10 [2] = assay: Induction of cytotoxicity (CellTiter-Glo, 5 h), SUDHL10
SUDHL10 [3] = assay: Induction of caspase-3/7 activity (Caspase-Glo 3/7), SUDHL10; format: cell-based; settings: caspase-3/7 induction, SUDHL10 cells, 3 h treatment, median
Procedure, shortened: as §1

MCL-1 = MCL-1 (Homo sapiens, UniProt Q07820); assay: Protein-protein interaction assay MCL-1/Noxa BH3 peptide (MCL-1 assay), TR-FRET; format: binding; settings: MBP-MCL-1 / Noxa BH3-derived peptide, median
Procedure, shortened: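 Displacement of the biotinylated Noxa BH3 peptide from MBP-tagged human MCL-1 (1 nM) is detected by time-resolved FRET. Compounds are tested in duplicate across eleven concentrations up to 20 μM, incubated 1 h at 22 °C and overnight at 4 °C, and IC50 is fitted with a four-parameter equation.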

A2780 = assay: Anti-proliferative effect (CellTiter-Glo, 72 h), A2780; format: cell-based; settings: A2780 cells, median, read-out: IC50 antiproliferation assay A2780 [M] (median)
Procedure, shortened: (§2)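 Viable cells quantified with CellTiter-Glo after 72 h at 37 °C; rim wells excluded; day 0 plate as baseline.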

SUDHL5 [4] = assay: Induction of cytotoxicity (CellTiter-Glo, 5 h), SUDHL5
MV-4-11 = assay: Anti-proliferative effect (CellTiter-Glo, 72 h), MV-4-11; format: cell-based; settings: MV-4-11 cells, median, read-out: IC50 antiproliferation assay MV-4-11 [M] (median)
Procedure, shortened: as §2

SUDHL5 [5] = assay: Anti-proliferative effect (CellTiter-Glo, 72 h), SUDHL5; format: cell-based; settings: SUDHL5 cells, antiproliferation, median, read-out: Antiproli SUDHL5 [M] (median)
Procedure, shortened: as §2

[6] = read-out: Cytotox SUDHL10 [M] (median), SUDHL10 cells, cytotoxicity induction, CellTiter-Glo, 5 h incubation, median
[7] = read-out: Cytotox SUDHL5 [M] (median), SUDHL5 cells, cytotoxicity induction, CellTiter-Glo, 5 h incubation, median
[8] = read-out: Cytotox SUDHL10 [M] (median), SUDHL10 cells, cytotoxicity induction, CellTiter-Glo, 5 h, median
[9] = read-out: Cytotox SUDHL5 [M] (median), SUDHL5 cells, cytotoxicity induction, CellTiter-Glo, 5 h, median

Chain of MCL-1 (Q07820 whole entry): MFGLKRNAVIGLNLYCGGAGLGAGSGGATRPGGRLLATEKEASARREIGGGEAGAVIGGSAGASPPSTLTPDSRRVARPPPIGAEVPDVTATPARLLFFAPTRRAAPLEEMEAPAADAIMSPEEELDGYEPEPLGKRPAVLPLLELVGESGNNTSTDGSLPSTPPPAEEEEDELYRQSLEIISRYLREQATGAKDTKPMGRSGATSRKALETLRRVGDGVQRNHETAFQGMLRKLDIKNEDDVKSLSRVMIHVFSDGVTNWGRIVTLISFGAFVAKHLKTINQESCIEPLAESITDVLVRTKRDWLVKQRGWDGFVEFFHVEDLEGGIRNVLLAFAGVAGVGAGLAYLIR

Cc1c2c(nn1C)COCCCCn1c(C(=O)O)c(CCCOc3cccc4cc(F)ccc34)c3cccc-2c31 (racemic) [Example 301, (rac)-7-{3-[(6-fluoronaphthalen-1-yl)oxy]propyl}-2,3-dimethyl-2,10,11,12,13,15-hexahydropyrazolo[4′,3′:9,10][1,6]oxazacycloundecino[8,7,6-hi]indole-8-carboxylic Acid]
EC50 (SUDHL5 [1]; Homo sapiens, SU-DHL-5, 3 h): 1.19 µM | IC50 (SUDHL10 [2]; Homo sapiens, SU-DHL10, 5 h, read-out: Cytotox SUDHL10 [M] (median), SUDHL10 cells, cytotoxicity induction, CellTiter-Glo, 5 h, median): 3.5e-06 M | EC50 (SUDHL10 [3]; Homo sapiens, SU-DHL10, 3 h): 3.29 µM | IC50 (MCL-1): 1.43 nM | IC50 (A2780; Homo sapiens, A2780, 72 h): 1.56e-05 M | IC50 (SUDHL5 [4]; Homo sapiens, SU-DHL-5, 5 h, read-out: Cytotox SUDHL5 [M] (median), SUDHL5 cells, cytotoxicity induction, CellTiter-Glo, 5 h, median): 1.6e-06 M | IC50 (MV-4-11; Homo sapiens, MV4-11, 72 h): 5.99e-06 M | IC50 (SUDHL5 [5]; Homo sapiens, SU-DHL-5, 72 h, 72 h): 2e-06 M

CN1CCCCn2c(C(=O)O)c(CCCOc3cccc4ccccc34)c3cccc(c32)-c2c(/C=C/F)nn(C)c2C1 (single isomer, unassigned) [Example 227, 3-[(E)-2-fluoroethenyl]-1,14-dimethyl-7-[3-(naphthalen-1-yloxy)propyl]-10,11,12,13,14,15-hexahydro-1H-pyrazolo[3′,4′:8,9][1,6]diazacycloundecino[10,11,1-hi]indole-8-carboxylic Acid]
EC50 (SUDHL5 [1]): > 33 µM | IC50 (SUDHL10 [2]; [6]): > 3.3e-05 M | EC50 (SUDHL10 [3]): > 33 µM | IC50 (MCL-1): 90.9 nM | IC50 (A2780): 1.65e-05 M | IC50 (SUDHL5 [4]; [7]): > 3.3e-05 M | IC50 (MV-4-11): 1.66e-05 M | IC50 (SUDHL5 [5]; 72 h incubation): 8.96e-06 M

COCc1nn(C)c2c1-c1cccc3c(CCCOc4cccc5ccccc45)c(C(=O)O)n(c13)CCCCCOC2 (single isomer, unassigned; enantiomer 2) [Example 179, 3-(methoxymethyl)-1-methyl-7-[3-(naphthalen-1-yloxy)propyl]-1,11,12,13,14,16-hexahydro-10H-pyrazolo[3′,4′:3,4][1,7]oxazacyclododecino[5,6,7-hi]indole-8-carboxylic acid-N-ethylethanamine Salt (Enantiomer 2)]
EC50 (SUDHL5 [1]): 11.9 µM | IC50 (SUDHL10 [2]; [6]): > 3.3e-05 M and 3.15e-05 M | EC50 (SUDHL10 [3]): 26.9 µM | IC50 (MCL-1): 9.43 nM | IC50 (A2780): > 3.3e-05 M | IC50 (SUDHL5 [4]; [7]): 1.22e-05 M | IC50 (MV-4-11; Homo sapiens, MV4-11, 72 h): 9.83e-06 M | IC50 (SUDHL5 [5]; 72 h incubation): 1.48e-05 M

Cn1nc2c(c1CN1CCOCC1)-c1cccc3c(CCCOc4cccc5ccccc45)c(C(=O)O)n(c13)CCCCOC2 (single isomer, unassigned; enantiomer 1) [Example 079, 2-methyl-3-(morpholin-4-ylmethyl)-7-[3-(naphthalen-1-yloxy)propyl]-2,10,11,12,13,15-hexahydropyrazolo[4′,3′:9,10][1,6]oxazacycloundecino[8,7,6-hi]indole-8-carboxylic acid-N-ethylethanamine Salt (Enantiomer 1)]
EC50 (SUDHL5 [1]): 3.85 µM | IC50 (SUDHL10 [2]; [6]): 8.83e-06 M | EC50 (SUDHL10 [3]): 9.85 µM | IC50 (MCL-1): 3.25 nM | IC50 (A2780; Homo sapiens, A2780, 72 h): 1.66e-05 M | IC50 (SUDHL5 [4]; [7]): 4.24e-06 M | IC50 (MV-4-11): 2.37e-06 M | IC50 (SUDHL5 [5]; 72 h incubation): 6.7e-06 M

Cc1c2c(nn1C)COCCCCn1c(C(=O)O)c(CCCOc3cccc4cc(Cl)ccc34)c3cccc-2c31 (single isomer, unassigned) [Example 297, (−)-7-{3-[(6-chloronaphthalen-1-yl)oxy]propyl}-2,3-dimethyl-2,10,11,12,13,15-hexahydropyrazolo[4′3′:9,10][1,6]oxazacycloundecino[8,7,6-hi]indole-8-carboxylic acid-N-ethylethanamine Salt]
EC50 (SUDHL5 [1]): > 33 µM | IC50 (SUDHL10 [2]; [8]): 2.77e-05 M | EC50 (SUDHL10 [3]): > 33 µM | IC50 (MCL-1): 126 nM | IC50 (A2780): 1.33e-05 M | IC50 (SUDHL5 [4]; [9]): 2.83e-05 M | IC50 (MV-4-11): 1.9e-05 M | IC50 (SUDHL5 [5]; 72 h): 5.16e-06 M

Cn1nc(COC2CC2)c2c1COCCCCn1c(C(=O)O)c(CCCOc3cccc4ccccc34)c3cccc-2c31 (single isomer, unassigned) [Example 215, 3-[(cyclopropyloxy)methyl]-1-methyl-7-[3-(naphthalen-1-yloxy)propyl]-1,10,11,12,13,15-hexahydropyrazolo[4′,3′:9,10][1,6]oxazacycloundecino[8,7,6-hi]indole-8-carboxylic Acid]
EC50 (SUDHL5 [1]): > 33 µM | IC50 (SUDHL10 [2]; [6]): > 3.3e-05 M | EC50 (SUDHL10 [3]): > 33 µM | IC50 (MCL-1): 182 nM | IC50 (A2780): > 3.3e-05 M | IC50 (SUDHL5 [4]; [7]): > 3.3e-05 M | IC50 (MV-4-11): 2.33e-05 M | IC50 (SUDHL5 [5]; 72 h incubation): 1.48e-05 M

Cc1ccc2c(C(C)CCOc3cccc4ccccc34)c(C(=O)O)n3c2c1-c1c(C)nn(C)c1COCCCC3 (single isomer, unassigned) [Example 260, 1,3,4-trimethyl-7-[4-(naphthalen-1-yloxy)butan-2-yl]-1,10,11,12,13,15-hexahydropyrazolo[4′3′:9,10][1,6]oxazacycloundecino[8,7,6-hi]indole-8-carboxylic Acid]
EC50 (SUDHL5 [1]): 10.2 µM | IC50 (SUDHL10 [2]; [6]): 1.18e-05 M | EC50 (SUDHL10 [3]): 11.3 µM | IC50 (MCL-1): 8.75 nM | IC50 (A2780): 2.2e-05 M | IC50 (SUDHL5 [4]; [7]): 6.3e-06 M | IC50 (MV-4-11; Homo sapiens, MV4-11, 72 h): 4.35e-06 M | IC50 (SUDHL5 [5]; 72 h incubation): 3.61e-06 M

COc1ccc2c(CCCOc3cccc4ccccc34)c(C(=O)O)n3c2c1-c1c(C)nn(C)c1COCCCC3 (single isomer, unassigned; enantiomer 2) [Example 353, 4-methoxy-1,3-dimethyl-7-[3-(naphthalen-1-yloxy)propyl]-1,10,11,12,13,15-hexahydropyrazolo[4′,3′:9,10][1,6]oxazacycloundecino[8,7,6-hi]indole-8-carboxylic Acid Ammonium Salt (Enantiomer 2)]
EC50 (SUDHL5 [1]): > 33 µM | IC50 (SUDHL10 [2]; [8]): > 3.3e-05 M | EC50 (SUDHL10 [3]): > 33 µM | IC50 (MCL-1): 1280 nM | IC50 (A2780): 2.17e-05 M | IC50 (SUDHL5 [4]; [9]): > 3.3e-05 M | IC50 (MV-4-11): 3.11e-05 M | IC50 (SUDHL5 [5]; 72 h): 8.32e-06 M

O=C(O)c1c(CCCOc2cccc3ccccc23)c2cccc3c2n1CCCCOCc1nn2c(c1-3)CCCC2 (single isomer, unassigned) [Example 254, 1-[3-(naphthalen-1-yloxy)propyl]-4,5,6,7,12,13,14,15-octahydro-9H-pyrido[1″,2″:1′,5′]pyrazolo[4′,3′:9,10][1,6]oxazacycloundecino[8,7,6-hi]indole-2-carboxylic Acid]
EC50 (SUDHL5 [1]): 3.01 µM | IC50 (SUDHL10 [2]; [6]): 8.11e-06 M | EC50 (SUDHL10 [3]): 7.24 µM | IC50 (MCL-1): 2.14 nM | IC50 (A2780): 2.25e-05 M | IC50 (A2780; Homo sapiens, A2780, 72 h): > 3.3e-05 M | IC50 (SUDHL5 [4]; [7]): 3.21e-06 M | IC50 (MV-4-11; Homo sapiens, MV4-11, 72 h): 8.59e-06 M | IC50 (SUDHL5 [5]; 72 h incubation): 2.32e-06 M

CN1CCCCn2c(C(=O)O)c(CCCOc3cccc4ccccc34)c3cccc(c32)-c2c(CC(F)(F)F)nn(C)c2C1 (single isomer, unassigned) [Example 223, 1,14-dimethyl-7-[3-(naphthalen-1-yloxy)propyl]-3-(2,2,2-trifluoroethyl)-10,11,12,13,14,15-hexahydro-1H-pyrazolo[3′,4′:8,9][1,6]diazacycloundecino[10,11,1-hi]indole-8-carboxylic Acid]
EC50 (SUDHL5 [1]): 6.96 µM | IC50 (SUDHL10 [2]; Homo sapiens, SU-DHL10, 5 h, read-out: Cytotox SUDHL10 [M] (median), SUDHL10 cells, cytotoxicity induction, CellTiter-Glo, 5 h incubation, median): 2.88e-05 M | IC50 (SUDHL10 [2]; [6]): > 3.3e-05 M | EC50 (SUDHL10 [3]; Homo sapiens, SU-DHL10, 3 h): 26.2 µM | IC50 (MCL-1): 4.24 nM | IC50 (A2780): > 3.3e-05 M | IC50 (SUDHL5 [4]; [7]): 8.33e-06 M | IC50 (MV-4-11; Homo sapiens, MV4-11, 72 h): 1.79e-05 M | IC50 (SUDHL5 [5]; Homo sapiens, SU-DHL-5, 72 h, 72 h incubation): 9.92e-06 M

Cc1c2c(nn1CCN1CCOCC1)COCCCCn1c(C(=O)O)c(CCCOc3cccc4cc(F)ccc34)c3cccc-2c31 (single isomer, unassigned) [Example 286, (−)-7-{3-[(6-fluoronaphthalen-1-yl)oxy]propyl}-3-methy-2-[2-(morpholin-4-yl)ethyl]-2,10,11,12,13,15-hexahydropyrazolo[4′,3′:9,10][1,6]oxazacycloundecino[8,7,6-hi]indole-8-carboxylic acid-N-ethylethanamine Salt]
EC50 (SUDHL5 [1]): 11.8 µM | IC50 (SUDHL10 [2]; [6]): > 3.3e-05 M | EC50 (SUDHL10 [3]): > 33 µM | IC50 (MCL-1): 27.2 nM | IC50 (A2780): 1.26e-05 M | IC50 (SUDHL5 [4]; [7]): 1.2e-05 M | IC50 (MV-4-11): 1.73e-05 M | IC50 (SUDHL5 [5]; 72 h incubation): 5.11e-06 M
